Columns and labels:
CDSN = CDSN expression at the mRNA level in keratinocytes; format: cell-based
corneodesmosin = assay: Corneodesmosin protein expression by immunoblotting, normalized to β-actin; format: cell-based; conditions: human primary keratinocytes, immunoblot
Text: Using a high throughput screening of small molecule libraries, utilizing green fluorescent protein (GFP) base reporter system and western blot analysis for validation of the results, it has now been found, in accordance with the present invention, that betulinic acid (which is already used as topical treatment on human skin, and capable of penetrating into the skin and be active in the epidermis while showing excellent safty profile) is capable of boosting corneodesmosin biosynthesis, and when administered to keratinocytes, it increases corneodesmosin expression by more than 3-fold (FIGS. 1-2), and may thus be used as an inducer of corneodesmosin expression in patients suffering from skin diseases or disorders associated with accelerated corneodesmosomes degradation and/or weaker cell-cell adhesion.
Corneodesmosin protein levels were quantified and normalized to β-actin protein levels and presented as corneodesmosin fold expression relative to normal keratinocytes treated with DMSO. […] The other compounds shown in the figure are 5-aminolevulinic acid hydrochloride (5-ALA; #1), piperlongumine (#2), thiostrepton (#3), obatoclax mesylate (GX15-070; #5), BI 2536 (CAS No.: 755038-02-9; #6), PHA-665752 (CAS No.: 477575-56-7 (anhydrous; #7), YH239-EE (CAS No.: 1364488-67-4; #8), PF-562271 (CAS No.: 717907-75-0; #9), and BI-D1870 (CAS No.: 501437-28-1; #10).

C=C(C)[C@@H]1CC[C@]2(C(=O)O)CC[C@]3(C)[C@H](CC[C@@H]4[C@@]5(C)CC[C@H](O)C(C)(C)[C@@H]5CC[C@]43C)[C@@H]12 [betulinic acid]
CDSN expression at the mRNA level relative to DMSO-treated normal keratinocytes (CDSN): 2 fold
corneodesmosin fold expression relative to normal keratinocytes treated with DMSO (corneodesmosin): more than 3 fold
